Laboratory results from the supplement of paper PMC4862054.
Where “and” joins values, the source holds several entries; their conditions need not be identical. Identical values can stand only once.

Key:
Assay in all cases: normalised viability (% of control), CellTiter-Blue; higher = more viable cells (about 100 = DMSO control)
Settings in all cases: incubation time: 72 h
CAL-148 = system: CAL-148
Procedure: (§1)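 DSRT, CellTiter-Blue viability, 72 h incubation. Signal is normalised to DMSO and benzethonium chloride controls. Value is the normalised response at dose 6.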

CAL-51 = system: CAL-51
Procedure: as §1

CAL-85-1 = system: CAL-85-1
Procedure: as §1

DU-4475 = system: DU-4475
Procedure: as §1

HDQ-P1 = system: HDQ-P1
Procedure: as §1

MDA-MB-453 = system: MDA-MB-453
Procedure: as §1

Compound | normalised viability (CAL-148) | normalised viability (CAL-51) | normalised viability (CAL-85-1) | normalised viability (DU-4475) | normalised viability (HDQ-P1) | normalised viability (MDA-MB-453)
CC(=O)c1c(C)c2cnc(Nc3ccc(N4CCNCC4)cn3)nc2n(C2CCCC2)c1=O (300 nM) | 102% | 81.1% | 89.8% | 102% | 52.7% | 74.3%
C[C@]1(O)C[C@@H](c2nc(-c3ccc4ccc(-c5ccccc5)nc4c3)c3c(N)nccn32)C1 [OSI-906] (300 nM) | 89.2% | 91.5% | 87.2% | 91.5% | 49.8% | 87%
O=NN(CCCl)C(=O)NCCCl [Carmustine] (300 nM) | 101% | 108% | 94.2% | 77.4% | 79.4% | 110%
COc1cc(F)c(F)c(Nc2ccc(I)cc2F)c1NS(=O)(=O)C1(C[C@H](O)CO)CC1 [RDEA119] (300 nM) | 82.6% | 74.9% | 72.8% | 1.76% | 58.7% | 80.8%
O=P(O)(O)C(O)(Cn1ccnc1)P(=O)(O)O [Zoledronic acid] (300 nM) | 93.6% | 104% | 98.4% | 115% | 68.9% | 93.7%
O=C1CN2Cc3c(ccc(Cl)c3Cl)N=C2N1 [Anagrelide] (300 nM) | 107% | 77.6% | 94.4% | 94.7% | 80.3% | 111%
CC(C)(C)c1cnc(CSc2cnc(NC(=O)C3CCNCC3)s2)o1 [SNS-032] (300 nM) | 7.44% | 74% | 9.41% | 27.9% | 10.2% | 18.9%
CC(=O)O[C@@]12CO[C@@H]1C[C@H](O)[C@@]1(C)C(=O)[C@H](O)C3=C(C)[C@@H](OC(=O)[C@H](O)[C@@H](NC(=O)OC(C)(C)C)c4ccccc4)C[C@@](O)([C@@H](OC(=O)c4ccccc4)[C@H]21)C3(C)C [Docetaxel] (30 nM) | 18.9% and 14.9% | 25.8% and 20.6% | 30.6% and 27.1% | 19.6% and 16.1% | 23.5% and 31.8% | 27.2% and 26.1%
Nc1nc2[nH]cnc2c(=S)[nH]1 [Thioguanine] (300 nM) | 99% | 102% | 93.3% | 100% | 75.6% | 107%
COc1cc2c(cc1O)CC[C@@H]1[C@@H]2CC[C@]2(C)[C@@H](O)CC[C@@H]12 [2-methoxyestradiol] (300 nM) | 97% | 110% | 99% | 90.8% | 72.2% | 81.3%
Cn1cc(C2=Nc3cc(NC(=O)C(N)C4CCCCC4)cc4c3C2=CNNC4=O)cn1 (stereo not drawn) (300 nM) | 84% | 93.9% | 66.1% | 84.3% | 58.7% | 34.9%
Nc1ncn([C@@H]2O[C@H](CO)[C@@H](O)[C@H]2O)c(=O)n1 [Azacitidine] (300 nM) | 95.3% | 104% | 93.1% | 90% | 84.5% | 91.9%
Cc1sc2c(c1C)C(c1ccc(Cl)cc1)=N[C@@H](CC(=O)OC(C)(C)C)c1nnc(C)n1-2 [(+)JQ1] (300 nM) | 73.8% | 98.1% | 64.2% | 57.6% | 62.9% | 34.8%
